Tests used:
Assay type in all cases: cell-based, mouse
[1] = system: 3T3-L1 cells stimulated by LPS; assay: GPCR 10-pathway reporter assay in LPS-induced 3T3-L1 cells; conditions: 100 ng/mL LPS 1 hour, 50 μM AzA 6 hours
Method: (§1) 3T3-L1 cells, mouse pre-adipose cells were purchased from the Korean Cell Line Bank (Seoul, Korea). The 3T3-L1 cells were cultured in Dulbecco's modified Eagle's medium (DMEM) supplemented with 10% heat-inactivated bovine calf serum (Gibco, Grand Island, N.Y., USA) and 1% PEST under 5% CO2 at 37° C. The 3T3-L1 pre-adipose cells were seeded on a 6-well plate at 1×10^6 cells/well to differentiate into adipose cells, and cultured to a density of 100%. After 2 days, the cultured 3T3-L1 pre-adipose cells were incubated in DMEM containing 10% fetal bovine serum (FBS) and an MDI solution (0.5 mM IBMX, 0.5 μM dexamethasone and 10 μg/mL insulin) for 3 days. Subsequently, the treated cells were cultured in DMEM containing 10% FBS and 10 μg/mL insulin, and the formation of lipid droplets in cells and the degree thereof were confirmed, and based on this, the differentiation into adipose cells was confirmed.
3T3-L1 adipose cells were seeded on a 96 well-plate at 1×10^4 cells/well and cultured for 24 hours, and transfected with a construct including a transcription factor promoter and a luciferase for 8 hours. […]
To confirm a mechanism of an anti-inflammatory effect of an AzA, 10 transcription factors for signal transduction of GPCR were analyzed by the same method as described in Example 7-3.

3T3-L1 adipose cells = assay: MTT cytotoxicity assay in 3T3-L1 adipose cells; conditions: 0 to 500 μM AzA, compared with control group
Method: The cytotoxicity test for 3T3-L1 adipose cells was performed by a tetrazolium-based colorimetric (MTT) method. The MTT assay is a method for evaluating cytotoxicity by measuring absorbance at a suitable wavelength (usually at 500 to 600 nm) based on a metabolic process, in which a dehydrogenase in mitochondria of intact cells reduces a yellow water-soluble tetrazolium salt [3-(4,5-dimethylthiazol-2-yl)-2-5-diphenyltetrazolium bromide] (MTT) into a water-insoluble dark violet MTT formazan crystal.

Olfr544 = assay: cAMP, calcium and PKA activity in Hepa1c1c-7 cells (Olfr544 activation)
Method: A cAMP assay estimates a production level of cAMP, which is a secondary messenger material of a GPCR receptor activated by a ligand, using a cAMP standard calibration curve. A 96 well-plate included in a cAMP Assay ELISA kit (Enzo Life science, New York, USA) was coated with a GxR IgG antibody, and cAMP in a blue solution for plotting the standard calibration curve, binds with alkaline phosphatase and turns into yellow color by the rabbit antibody. When pNpp substrate is added into the wells bound with cAMP, alkaline phosphatase is activated to cause the color changes, and a cAMP concentration may be measured through colorimetric quantification at a wavelength of 405 nm. In this experiment, Hepa1c1c-7 cells were seeded on a 96-well plate at 1×10^4 cells/well for differentiation, and treated with 50 μM of AzA and 1 μM of Forskolin (FSK), which is a positive control, for 18 hours, and then a cAMP concentration was measured according to the above-described method.

Hepa1c1c-7 cells = assay: Fatty acid oxidation rate ([1-14C]palmitate) in Hepa1c1c-7 cells; conditions: 100 μM AzA, 24 hours, compared with control group
Method: Hepa1c1c-7 cells were seeded on a 24-well plate at 5×10^5 cells/mL, cultured for 24 hours, treated with 100 μM of AzA, and then incubated for 24 hours. Afterward, [1-^14C]palmitate was accumulated, the cells were cultured for one hour, and the medium was collected to extract CO2 using NaOH and HCl, followed by measuring ^14CO2 using a liquid scintillation counter. As a positive control, GW7647 (1 μM) was used.

[2] = system: 3T3-L1 cells stimulated by LPS; assay: IL-6 and TNF-α gene expression (qPCR) in LPS-treated 3T3-L1 adipose cells; conditions: LPS-treated 3T3-L1 cells differentiated into adipose cells, compared with control group
Method: as §1, with “confirmed. To confirm the expression of IL-6 and TNF-α genes, qRT-PCR was performed by the same methods described in Examples 7-4 and 7-5.” for “confirmed.”

## O=C(O)CCCCCCCC(=O)O [AzA, nonanedioic acid]
[1]
  FOXO transcription factor activity (PI-3 Kinase/AKT pathway): significant activity
3T3-L1 adipose cells
  cytotoxicity (MTT assay): toxicity was not exhibited at every concentration
Olfr544; 50 μM AzA, 18 hours, compared with control group
  cAMP concentration in the cells: significantly increased
Olfr544; AzA treatment
  PKA activity: significantly increased
Olfr544; compared with control group
  calcium concentration in the cells: significantly increased
Hepa1c1c-7 cells
  fatty acid oxidation rate: significantly increased
[2]
  IL-6 gene expression: significantly decreased
